Results as given in ChEMBL document CHEMBL6103583, “Purified Monascus Pigments: Biological Activities and Mechanisms of Action” (J Nat Prod, 2025).
≈ marks a conversion by molar mass, not a printed value.

Columns and labels:
RAW264.7 [1] = test: Antiinflammatory activity against mouse RAW264.7 cells assessed as inhibition of LPS-NO production incubated for 24 hrs by Griess reagent based assay; type: functional, cell-based; conditions: RAW264.7, 24 h
WiDr [2] = test: Antiproliferative activity against human WiDr cells assessed as reduction in cell growth incubated for 3 days by MTT assay; type: functional, cell-based; conditions: 72 h
RAW264.7 [3] = test: Antiinflammatory activity against mouse RAW264.7 cells assessed as inhibition of LPS-NO production by Griess reagent based assay; type: functional, cell-based
HEp-2 [4] = test: Antiproliferative activity against human HEp-2 cells assessed as reduction in cell growth incubated for 3 days by MTT assay; type: functional, cell-based; conditions: HEp-2, 72 h
Escherichia coli [5] = test: Antibacterial activity against Escherichia coli KCCM 11234 assessed as reduction in bacterial growth incubated for 12 hrs by broth micro-dilution method; type: functional
Enterococcus faecalis = test: Antibacterial activity against Enterococcus faecalis KCCM 11814 assessed as reduction in bacterial growth incubated for 12 hrs by broth micro-dilution method; type: functional
Pseudomonas aeruginosa = test: Antibacterial activity against Pseudomonas aeruginosa KCCM 11328 assessed as reduction in bacterial growth incubated for 12 hrs by micro-dilution method; type: functional
Proteus vulgaris = test: Antibacterial activity against Proteus vulgaris KCCM 11906 assessed as reduction in bacterial growth incubated for 12 hrs by broth micro-dilution method; type: functional
Candida albicans = test: Antifungal activity against Candida albicans KCCM 10231 assessed as reduction in […] incubated for 12 hrs by micro-dilution method; type: functional
Penicillium digitatum = test: Antifungal activity against Penicillium digitatum KCCM 60140 assessed as reduction in […] incubated for 12 hrs by micro-dilution method; type: functional
Staphylococcus aureus [6] = test: Antibacterial activity against Staphylococcus aureus KCCM 11817 assessed as reduction in bacterial growth incubated for 12 hrs by broth micro-dilution method; type: functional
Staphylococcus aureus [7] = test: Antibacterial activity against Staphylococcus aureus […] assessed as reduction in bacterial growth incubated for 12 hrs by broth micro-dilution method; type: functional
Bacillus subtilis = test: Antibacterial activity against Bacillus subtilis KCCM 11316 assessed as reduction in bacterial growth incubated for 12 hrs by broth micro-dilution method; type: functional
Haemophilus influenzae = test: Antibacterial activity against Haemophilus influenzae KCCM 11903 assessed as reduction in bacterial growth incubated for 12 hrs by broth micro-dilution method; type: functional
Aspergillus niger = test: Antifungal activity against Aspergillus niger KCCM 11239 assessed as reduction in […] incubated for 12 hrs by micro-dilution method; type: functional
[8] = Antibacterial activity against Salmonella choleraesuis KCCM 11806 assessed as reduction in bacterial growth; type: functional, Salmonella enterica subsp. enterica serovar Choleraesuis; conditions: Salmonella enterica
Salmonella typhimurium = test: Antibacterial activity against Salmonella Typhimurium KCCM 11806 assessed as reduction in bacterial growth incubated for 12 hrs by micro-dilution method; type: functional, Salmonella enterica subsp. enterica serovar Typhimurium; conditions: Salmonella enterica
Penicillium citrinum = test: Antifungal activity against Penicillium citrinum KCCM 11663 assessed as reduction in […] incubated for 12 hrs by micro-dilution method; type: functional
Shigella sonnei = test: Antibacterial activity against Shigella sonnei KCCM 40253 assessed as reduction in bacterial growth incubated for 12 hrs by micro-dilution method; type: functional
Klebsiella aerogenes = test: Antibacterial activity against Enterobacter aerogenes KCCM 12177 assessed as reduction in bacterial growth incubated for 12 hrs by broth micro-dilution method; type: functional
Escherichia coli [9] = test: Antibacterial activity against Escherichia coli KCCM 11234 assessed as reduction in bacterial growth incubated; type: functional
WiDr [10] = test: Antiproliferative activity against human WiDr cells assessed as reduction in cell viability incubated for 72 hrs by MTT assay; type: functional, cell-based
HEp-2 [11] = test: Antiproliferative activity against human HEp-2 cells assessed as reduction in cell viability incubated for 72 hrs by MTT assay; type: functional, cell-based; conditions: HEp-2, 72 h
Escherichia coli [12] = test: Antibacterial activity against Escherichia coli assessed as reduction in bacterial growth by broth microdilution method; type: functional

SMILES	IC50 (RAW264.7 [1]) [µM]	MIC (Enterococcus faecalis) [µg/mL]	MIC (Pseudomonas aeruginosa) [µg/mL]	MIC (Proteus vulgaris) [µg/mL]	MIC (Candida albicans) [µg/mL]	MIC (Penicillium digitatum) [µg/mL]	MIC (Staphylococcus aureus [6]) [µg/mL]	MIC (Staphylococcus aureus [7]) [µg/mL]	MIC (Bacillus subtilis) [µg/mL]	MIC (Haemophilus influenzae) [µg/mL]	MIC (Aspergillus niger) [µg/mL]	MIC [8] [µg/mL]	MIC (Salmonella typhimurium) [µg/mL]	MIC (Penicillium citrinum) [µg/mL]	MIC (Shigella sonnei) [µg/mL]	MIC (Klebsiella aerogenes) [µg/mL]	further results
C/C=C/C1=CC2=CC3=C(C(=O)CCCCC)C(=O)OC3(C)C(=O)C2=CN1 (stereo not drawn)	12.5	–	–	–	–	–	–	–	–	–	–	–	–	–	–	–	–
C/C=C/c1cc2c(cn1)C(=O)[C@](C)(O)[C@@H](CC(=O)CCCCC)C2	57.1	–	–	–	–	–	–	–	–	–	–	–	–	–	–	–	–
C/C=C/C1=CC2=C(CO1)C(=O)[C@](C)(O)[C@@H](CC(=O)CCCCC)C2	–	–	–	–	–	–	–	–	–	–	–	–	–	–	–	–	IC50 (WiDr [2]): 55.3 µM; IC50 (RAW264.7 [3]): 22.6 µM; IC50 (HEp-2 [4]): 77.6 µM
N[C@H](Cc1ccccc1)C(=O)O [D-PHENYLALANINE]	–	8 (≈ 48.4 µM)	16 (≈ 96.9 µM)	16 (≈ 96.9 µM)	8 (≈ 48.4 µM)	16 (≈ 96.9 µM)	16 (≈ 96.9 µM)	8 (≈ 48.4 µM)	8 (≈ 48.4 µM)	16 (≈ 96.9 µM)	8 (≈ 48.4 µM)	4 (≈ 24.2 µM)	8 (≈ 48.4 µM)	8 (≈ 48.4 µM)	16 (≈ 96.9 µM)	16 (≈ 96.9 µM)	MIC (Escherichia coli [5]): 8 µg/mL (≈ 48.4 µM); MIC (Escherichia coli [9]): 8 µg/mL (≈ 48.4 µM)
C/C=C/C1=CC2=CC3=C(C(=O)CCCCCCC)C(=O)O[C@@]3(C)[C@@H](O)C2=CO1	0.99	–	–	–	–	–	–	–	–	–	–	–	–	–	–	–	IC50 (WiDr [10]): 8.6 µM; IC50 (HEp-2 [11]): 9.8 µM
N[C@H](Cc1ccc(O)cc1)C(=O)O	–	4 (≈ 22.1 µM)	16 (≈ 88.3 µM)	16 (≈ 88.3 µM)	16 (≈ 88.3 µM)	32 (≈ 177 µM)	16 (≈ 88.3 µM)	8 (≈ 44.2 µM)	4 (≈ 22.1 µM)	16 (≈ 88.3 µM)	4 (≈ 22.1 µM)	4 (≈ 22.1 µM)	4 (≈ 22.1 µM)	4 (≈ 22.1 µM)	8 (≈ 44.2 µM)	16 (≈ 88.3 µM)	–
C/C=C/C1=CC2=CC3=C(C(=O)CCCCCCC)C(=O)O[C@@]3(C)C(=O)C2=CO1	> 39.2	–	–	–	–	–	–	–	–	–	–	–	–	–	–	–	IC50 (WiDr [10]): 54.1 µM; IC50 (HEp-2 [11]): 55.9 µM
C/C=C/C1=CC2=CC3=C(C(=O)CCCCC)C(=O)OC3(C)C(=O)C2=CN1CCO (stereo not drawn)	27.5	–	–	–	–	–	–	–	–	–	–	–	–	–	–	–	–
N[C@@H](Cc1ccccc1)C(=O)O [PHENYLALANINE]	–	4 (≈ 24.2 µM)	8 (≈ 48.4 µM)	16 (≈ 96.9 µM)	8 (≈ 48.4 µM)	16 (≈ 96.9 µM)	16 (≈ 96.9 µM)	8 (≈ 48.4 µM)	8 (≈ 48.4 µM)	16 (≈ 96.9 µM)	8 (≈ 48.4 µM)	8 (≈ 48.4 µM)	4 (≈ 24.2 µM)	8 (≈ 48.4 µM)	16 (≈ 96.9 µM)	16 (≈ 96.9 µM)	MIC (Escherichia coli [5]): 8 µg/mL (≈ 48.4 µM); MIC (Escherichia coli [12]): 16 µg/mL (≈ 96.9 µM); MIC (Escherichia coli [9]): 8 µg/mL (≈ 48.4 µM)
C/C=C/C1=CC2=C/C(=C(/C#N)C(=O)CCCCC)C(C)(O)C(=O)C2=CO1 (stereo not drawn)	2.6	–	–	–	–	–	–	–	–	–	–	–	–	–	–	–	–
